# In article PMC8949944, “The Effect of Microbubble-Assisted Ultrasound on Molecular Permeability across Cell Barriers” (Pharmaceutics, 2022):
# “And” between values parts separate entries of the source, which are not always exact repeats. Equal values may be shown once. “Also recorded” adds a separate entry of the source.
# Columns and labels:
# [1] = tested on: epithelial (MDCK II) cell barrier; assay: Permeability of model drugs across epithelial (MDCK II) barrier on transwell after USMB or sham treatment; assay type: in vitro ADME, canine; conditions: for total permeated amount: 0 MPa (sham, absence of USMB), 120 min, apical-to-basolateral; for effect of USMB on permeability across epithelial barrier: increasing ultrasound pressures 0.3-0.7 MPa vs sham
# Experimental: (§1) For the permeability studies, epithelial cells were cultured as tight monolayers on transwell membranes. […] Prior to cell seeding, the transwell membranes were equilibrated for 10 min with culture medium at room temperature. […] The permeability of various test compounds across epithelial monolayers cultured on transwell membranes was studied in the apical-to-basolateral direction (Figure 1A). […] Ultrasound experiments were performed using an unfocused, single-element transducer with 20 mm diameter (PA420, Precision Acoustics, Dorchester, UK). […] The resulting signal was then amplified (AG1012, T&C Power Conversion Inc., New York, NY, USA) before it was sent to the ultrasound transducer. A dedicated sonication tank compatible with transwell inserts was used for the USMB experiments (Figure 1B). The ultrasound transducer was positioned at the bottom of the bath and about 250 mL of PBS at 37 °C was added. Subsequently, the transwell insert was immersed in the bath with the transwell membrane covered with cells facing down (Figure 1B) at a fixed axial distance (80 mm) from the ultrasound transducer. Transwell inserts were randomly assigned to USMB-treated or sham-treated sample groups. Following immersion of USMB-treated samples in the sonication bath, 500 μL of freshly mixed SonoVue^TM microbubbles (Bracco, Milan, Italy) was injected near the cells using a curved-tip 19G needle (Figure 1C). […] Microbubbles were allowed to float for 1 min so that direct contact with the cells was assured. Subsequently, ultrasound was applied for 1 min with acoustic peak negative pressure (Pneg) ranging between 0.3 and 0.7 MPa. […] Sham-treated samples were immersed in the PBS bath for 2 min and served as negative controls (0 MPa). […] Immediately after USMB treatment, transwell inserts were removed from the sonication bath (containing PBS) and were placed in a new six-well plate. […] The initial concentration of test compounds on the apical side was 1 μCi/mL for propranolol and mannitol and 200 μM for 6-carboxyfluorescein and fluorescent dextrans. An overview of the relevant physicochemical characteristics of the test compounds used in the permeability experiments is given in Table 1. […] The volume of removed sample was replaced with fresh HBSS. During the experiment, cells were kept at 37 °C and shaking at 170 rounds per minute. In the experiments where fluorescent compounds were used, samples were protected from light at all times. The samples containing radioactively-labelled compounds were equilibrated overnight in liquid scintillation cocktail for radiometric detection (Ultima Gold, 6013321, Perkin Elmer) at room temperature. Detection of radioactivity counts was determined by a microplate counter for radiometric counting (MicroBeta, 2450, Perkin Elmer). Intensity of fluorescence signals was determined by a spectrofluorophotometer (FP 8300, Jasco Benelux BV, Utrecht, The Netherlands). 6-carboxyfluorescein was excited at 492 nm and emission was detected at 517/5 nm (center wavelength/bandwidth) and TRITC-dextrans were excited at 550 nm and detected at 575/5 nm. Background radioactivity and fluorescence signal from HBSS were subtracted from the measurements. […] Q is the flux of the test compound (μg/s), C0 is the initial concentration of the test compound at the apical side (μg/mL), and A is the surface area of the transwell membrane (cm^2).
# [2] = cited from earlier work; for Hydrophilic/Lipophilic: classification in Table 1
# [3] = Permeability of model drugs across epithelial (MDCK II) barrier on transwell after USMB or sham treatment; assay type: in vitro ADME, canine; conditions: dog, MDCK; 0 MPa (sham); apical-to-basolateral; read-out: apparent permeability coefficient (Papp)
# Experimental: as §1
# [4] = tested on: endothelial (HUVEC) barrier; assay: Permeability of model drugs across endothelial (HUVEC) barrier on transwell; assay type: in vitro ADME, Human
# Excerpt: Supplementary Information: The Effect of Microbubble-As-sisted Ultrasound on Molecular Permeability across Cell Barri- […]
# Charis Rousou, Josanne de Maar, Boning Qiu, Kim van der Wurff-Jacobs, Marika Ruponen, Arto Urtti, Sabrina Oliveira, Chrit Moonen, Gert Storm, Enrico Mastrobattista and Roel Deckers SI-1. Materials and methods
# SI-1.1. Culture of endothelial cells
# Human umbilical vein endothelial cells (HUVEC) were acquired from Lonza (Verviers, Belgium) and cultured in Endothelial Basal Medium (EBM-2) supplemented with growth factors (Growth Medium 2 SupplementMix®, PromoCell, Heidelberg Germany) and 0.1% antibiotics (gentamicin/amphotericin B, Gibco, New York, USA). Cells were sub-cultured 1-2 times per week in dilution ratios between 1:3-1:6 and were used up to passage number 7.
# SI-1.2. Differentiation of endothelial cells […]
# The effect of USMB treatment on the viability of epithelial cells was examined using the AlamarBlue assay. […] Next, the solution from the apical side was removed and fluorescence intensity was analyzed with a spectrofluorophotometer (FP 8300, Jasco) at excitation and emission wavelengths of 571 nm and 584/5 nm (center wavelength/bandwidth), respectively. Cell viability of each group was calculated as percentage fluorescent signal relative to that of sham treated cells. […]
SMILES,total permeated amount [1],effect of USMB on permeability across epithelial barrier [1],Hydrophilic/Lipophilic [2],"Papp A→B at 120 min, 200 µM [3] [×10⁻⁶ cm/s]",LogD ([2]; octanol/water partition coefficient at pH 7.4),"permeated amount ([4]; control samples (0 MPa), 120 minutes, endothelial barrier) [%]","Papp endothelial (HUVEC) barrier relative to epithelial (MDCK II) barrier ([4]; sham treatment, absence of USMB)"
"OC[C@@H](O)[C@@H](O)[C@H](O)[C@H](O)CO [Mannitol, mannitol]",5.6 ± 1.4%,did not have a significant effect; also recorded: lack of measurable effect,Hydrophilic,,,,
"CC(C)NCC(O)COc1cccc2ccccc12 (stereo not shown) [Propranolol, propranolol]",29.1 ± 2.2%,did not have a significant effect,Lipophilic,,,,
O=C(O)c1ccc(C(=O)O)c(-c2c3ccc(=O)cc-3oc3cc(O)ccc23)c1 [6-carboxyfluorescein],4.06% and 4.1 ± 0.5%,did not have a significant effect; also recorded: lack of measurable effect,Hydrophilic,0.06,−3.2,5.14,22 times and ~ 20 times
